System: mice with OVA-induced allergic asthma
Assay: BAL fluid cell counts, Bud vs Bud-21 P (Experimental Groups III)
Assay type: in vivo
Protocol: Male Balb/c SPF mice (25*2 g, 6-week-old) were purchased from the animal house facilities at the São Paulo School of Medicine (Federal University of São Paulo, Brazil). They were group-housed in a temperature-controlled room at 22° C. with a 12/12-hour light/dark cycle and allowed free access to food and water. The study is in agreement with the Ethical Principles for Animal Research established by the Brazilian College for Animal Experimentation (COBEA). According to the internal laboratory rules, euthanasia is performed if severe distress related to the test agents developed during the experiment.
In Protocol 3, the test compounds budesonide (Bud; MW: 430.53 g/mol) and budesonide 21-phosphate free acid (Bud-21 P; MW: 510.51 g/mol) were administered at equimolar doses of 3, 10 and 30 nmol/animal/day, equivalent to 1.3, 4.3 and 12.9 μg/animal/day of Bud, 1.5, 5.1 and 15.3 μg/animal/day of Bud-21 P, respectively. […]
After Penh evaluation, the mice were anesthetized with inhaled isofluorane (5% v/v in O2) and blood samples were collected from the descending abdominal aorta. […] Total cell counts were determined using a Neubauer chamber, and differential counting was carried out in cytospin (Fanem Mod 2400; São Paulo, Brazil) preparations stained with May-Grünwald dye. […]

Structure (SMILES): CCCC1OC2CC3C4CCC5=CC(=O)C=CC5(C)C4C(O)CC3(C)C2(C(=O)CO)O1 (stereo not drawn) [Bud, 11β,21-dihydroxy-16α,17α-(butylidenebis(oxy))pregna-1,4-diene-3.20-dione]
- total BAL leukocytes compared with Sham (3 nmol/animal/day i.n.): still significantly higher than that observed in the Sham mice
- BAL macrophages compared with Sham (3 or 10 nmol/animal/day i.n.): still significantly higher than those observed in the Sham group

From patent publication US12465614B2, “Budesonide 21-phosphate salts and pharmaceutical compositions containing the same” (GENETIC S.P.A., priority 2020, dated 2025)
